Assay results published in US12559529B2, “NPY2 receptor agonists” (Boehringer Ingelheim International GmbH, priority 2019, dated 2026).
pKi: −log10 of the molar value. *1 amine or outer side, *2 acyl side, *3 side chain or, on linkers, in order; H or OH if unused. Where a SMILES comes first, the peptide text is derived from it. Side-chain parts run from the residue outwards. The star is where a group is joined. C18 diacid = O=C(O)CCCCCCCCCCCCCCCCC(=O)*; γGlu = O=C(O)[C@H](CCC(=O)[*:2])N[*:1]; Isovaleryl = CC(C)CC(=O)*; AEEA = NCCOCCOCC(=O)O

Assays:
[1] = tested on: normal NMRI mice; test: Effect on acute food intake in normal NMRI mice; format: in vivo; conditions: male NMRI mice, 10 nmol/kg subcutaneously once
Protocol: Male NMRI mice were obtained from Charles River (Charles River, Research Models & Services Germany GmbH) or from Jan Vier (Jan Vier Labs, France) at 5 weeks of age. […] Room temperature was controlled to 21° C.±1° C., with 60%+20% humidity.
Animals were transferred 5-7 days before the start of the study to a real-time food intake monitoring system, HM-2 system (MBRose, Denmark), to allow acclimatization to experimental conditions. As the animals were uniquely identified with microchips, each individual animal was identified by its microchip upon entry and exit from the food channel. Randomization of the mice for each study group (n=7-8) was based on body weight measured the day before the start of the study. A vehicle-treated (50 mM phosphate buffer pH7 with 5% Mannitol) group was included in each experiment. Six hours before the start of the night phase animals were fasted. One hour before the dark phase animals were dosed once subcutaneously (10 nmol/kg) with test peptide. […] The food intake of the treated groups was normalized (in %) to the average food intake of the group receiving vehicle (Table 7). Statistical significance was evaluated using One-way analysis of variance with Turkey's multiple comparison test. P<0.05 was considered statistically significant.

[2] = molecular target: T1, Human Neuropeptide Y2 Receptor (Homo sapiens, UniProt P49146); test: Radioligand binding competition assay (RLB); conditions: Table 3; human 125I-PYY (1-36) 0.02 nM, Y2 receptor membranes; read-out: Ki
T1 construct: purchased CHEMICON HTS066M
T1 sequence (P49146 1-381): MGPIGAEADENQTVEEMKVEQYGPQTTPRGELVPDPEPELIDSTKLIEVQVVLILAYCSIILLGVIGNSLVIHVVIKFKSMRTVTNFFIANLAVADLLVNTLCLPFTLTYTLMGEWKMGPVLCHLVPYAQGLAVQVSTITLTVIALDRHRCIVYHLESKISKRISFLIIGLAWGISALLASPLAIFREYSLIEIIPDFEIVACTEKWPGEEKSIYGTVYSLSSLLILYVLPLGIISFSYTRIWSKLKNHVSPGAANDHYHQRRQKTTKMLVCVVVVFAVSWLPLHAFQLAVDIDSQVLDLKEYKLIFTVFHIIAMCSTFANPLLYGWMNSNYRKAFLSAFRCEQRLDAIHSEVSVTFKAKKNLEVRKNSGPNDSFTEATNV
Summary of the method: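 Membranes (0.5 μg/well) and test peptides, serially diluted from 1 mM DMSO stocks, were incubated 2 hours at room temperature in HEPES buffer pH 7.4 with Mg, Ca and ovalbumin.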

| pKi [2] | Compound | Acute Food Intake 24 h [% vehicle] [1] [% vehicle] |
| --- | --- | --- |
| 8.50 | CC(C)CC(=O)N[C@@H](C)C(=O)N1CCC[C@H]1C(=O)N[C@@H](CCC(=O)O)C(=O)N[C@@H](CCCCNC(=O)COCCOCCNC(=O)COCCOCCNC(=O)CC[C@H](NC(=O)CCCCCCCCCCCCCCCCC(=O)O)C(=O)O)C(=O)N1CCC[C@H]1C(=O)N[C@@H](CCC(=O)O)C(=O)N[C@@H](CCC(=O)O)C(=O)N[C@@H](CCC(=O)O)C(=O)N[C@@H](C)C(=O)N[C@@H](CO)C(=O)N1CCC[C@H]1C(=O)N[C@@H](C)C(=O)N[C@@H](CCC(=O)O)C(=O)N[C@@H](CC(C)C)C(=O)N[C@@H](CCC(N)=O)C(=O)N[C@@H](CCCNC(=N)N)C(=O)N[C@@H](Cc1ccc(O)cc1)C(=O)N[C@@H](Cc1ccc(O)cc1)C(=O)N[C@H](C(=O)N[C@@H](CO)C(=O)N[C@@H](CC(C)C)C(=O)N[C@@H](CCCNC(=N)N)C(=O)N[C@@H](Cc1c[nH]cn1)C(=O)N[C@@H](Cc1ccc(O)cc1)C(=O)N[C@@H](Cc1ccc(O)cc1)C(=O)N[C@@H](CC(N)=O)C(=O)N[C@@H](Cc1c[nH]c2ccccc12)C(=O)N[C@@H](CC(C)C)C(=O)N[C@H](C(=O)N[C@@H](CCCNC(=N)N)C(=O)N[C@@H](CCC(N)=O)C(=O)N[C@@H](CCCNC(=N)N)C(=O)N[C@@H](Cc1ccc(O)cc1)C(N)=O)[C@@H](C)O)C(C)C [Compound 3, N{alpha-4}-(3-methylbutanoyl)-N{epsilon-7}-[2-(2-{2-[2-(2-{2-[(4S)-4-carboxy-4-(17-carboxyheptadecanamido)butanamido]ethoxy}ethoxy)acetamido]ethoxy}ethoxy)acetamido]-[4A,7K,9E,11E,15A,18Q,22V,28Y,30W,31L]hPYY (4-36)] (Isovaleryl-APEK([AEEA-AEEA-γGlu-C18 diacid])PEEEASPAELQRYYVSLRHYYNWLTRQRY-NH2) | 62 |
| 8.99 | CC(C)CC(=O)N[C@@H](C)C(=O)N1CCC[C@H]1C(=O)N[C@@H](CCC(=O)O)C(=O)N[C@@H](CCCCNC(=O)COCCOCCNC(=O)COCCOCCNC(=O)CC[C@H](NC(=O)CCCCCCCCCCCCCCCCC(=O)O)C(=O)O)C(=O)N1CCC[C@H]1C(=O)N[C@@H](CCC(=O)O)C(=O)N[C@@H](CCC(=O)O)C(=O)N[C@@H](CC(=O)O)C(=O)N[C@@H](C)C(=O)N[C@@H](CO)C(=O)N1CCC[C@H]1C(=O)N[C@@H](CCC(=O)O)C(=O)N[C@@H](CCC(=O)O)C(=O)N[C@@H](CC(C)C)C(=O)N[C@@H](CCC(N)=O)C(=O)N[C@@H](C)C(=O)N[C@@H](Cc1ccc(O)cc1)C(=O)N[C@@H](Cc1ccc(O)cc1)C(=O)N[C@H](C(=O)N[C@@H](CO)C(=O)N[C@@H](CC(C)C)C(=O)N[C@@H](CCCNC(=N)N)C(=O)N[C@@H](Cc1c[nH]cn1)C(=O)N[C@@H](Cc1ccc(O)cc1)C(=O)N[C@@H](Cc1ccc(O)cc1)C(=O)N[C@@H](CC(N)=O)C(=O)N[C@@H](Cc1c[nH]c2ccccc12)C(=O)N[C@@H](CC(C)C)C(=O)N[C@H](C(=O)N[C@@H](CCCNC(=N)N)C(=O)N[C@@H](CCC(N)=O)C(=O)N[C@@H](CCCNC(=N)N)C(=O)N[C@@H](Cc1ccc(O)cc1)C(N)=O)[C@@H](C)O)C(C)C [Compound 7, N{alpha-4}-(3-methylbutanoyl)-N{epsilon-7}-[2-(2-{2-[2-(2-{2-[(4S)-4-carboxy-4-(17-carboxyheptadecanamido)butanamido]ethoxy}ethoxy)acetamido]ethoxy}ethoxy)acetamido]-[4A,7K,9E,18Q,19A,22V,28Y,30W,31L]hPYY (4-36)] | 47 |
| – | CC(C)CC(=O)N[C@@H](C)C(=O)N1CCC[C@H]1C(=O)N[C@@H](CCC(=O)O)C(=O)N[C@@H](CCCCNC(=O)COCCOCCNC(=O)COCCOCCNC(=O)CC[C@H](NC(=O)CCCCCCCCCCCCCCCCC(=O)O)C(=O)O)C(=O)N1CCC[C@H]1C(=O)N[C@@H](CCC(=O)O)C(=O)N[C@@H](CCC(=O)O)C(=O)N[C@@H](CCC(=O)O)C(=O)N[C@@H](C)C(=O)N[C@@H](CO)C(=O)N1CCC[C@H]1C(=O)N[C@@H](CCC(=O)O)C(=O)N[C@@H](CCC(=O)O)C(=O)N[C@@H](CC(C)C)C(=O)N[C@@H](CCC(N)=O)C(=O)N[C@@H](CCCNC(=N)N)C(=O)N[C@@H](Cc1ccc(O)cc1)C(=O)N[C@@H](CCC(=O)O)C(=O)N[C@H](C(=O)N[C@@H](CO)C(=O)N[C@@H](CC(C)C)C(=O)N[C@@H](CCCNC(=N)N)C(=O)N[C@@H](Cc1c[nH]cn1)C(=O)N[C@@H](Cc1ccc(O)cc1)C(=O)N[C@@H](Cc1ccc(O)cc1)C(=O)N[C@@H](CC(N)=O)C(=O)N[C@@H](Cc1c[nH]c2ccccc12)C(=O)N[C@@H](CC(C)C)C(=O)N[C@H](C(=O)N[C@@H](CCCNC(=N)N)C(=O)N[C@@H](CCC(N)=O)C(=O)N[C@@H](CCCNC(=N)N)C(=O)N[C@@H](Cc1ccc(O)cc1)C(N)=O)[C@@H](C)O)C(C)C [Compound 154, N{alpha-4}-(3-methylbutanoyl)-N{epsilon-7}-[2-(2-{2-[2-(2-{2-[(4S)-4-carboxy-4-(17-carboxyheptadecanamido)butanamido]ethoxy}ethoxy)acetamido]ethoxy}ethoxy)acetamido]-[4A,7K,9E,11E,18Q,21E,22V,28Y,30W,31L]hPYY (4-36)] (Isovaleryl-APEK([AEEA-AEEA-γGlu-C18 diacid])PEEEASPEELQRYEVSLRHYYNWLTRQRY-NH2) | 73 |
| – | CC(C)CC(=O)N[C@@H](C)C(=O)N1CCC[C@H]1C(=O)N[C@@H](CCC(=O)O)C(=O)N[C@@H](CCCCNC(=O)COCCOCCNC(=O)COCCOCCNC(=O)CC[C@H](NC(=O)CCCCCCCCCCCCCCCCC(=O)O)C(=O)O)C(=O)N1CCC[C@H]1C(=O)N[C@@H](CCC(=O)O)C(=O)N[C@@H](C)C(=O)N[C@@H](CC(=O)O)C(=O)N[C@@H](C)C(=O)N[C@@H](CO)C(=O)N1CCC[C@H]1C(=O)N[C@@H](CCC(=O)O)C(=O)N[C@@H](CCC(=O)O)C(=O)N[C@@H](CC(C)C)C(=O)N[C@@H](CCC(=O)O)C(=O)N[C@@H](CCC(N)=O)C(=O)N[C@@H](Cc1ccc(O)cc1)C(=O)N[C@@H](Cc1ccc(O)cc1)C(=O)N[C@H](C(=O)N[C@@H](CO)C(=O)N[C@@H](CC(C)C)C(=O)N[C@@H](CCCNC(=N)N)C(=O)N[C@@H](Cc1c[nH]cn1)C(=O)N[C@@H](Cc1ccc(O)cc1)C(=O)N[C@@H](Cc1ccc(O)cc1)C(=O)N[C@@H](CC(N)=O)C(=O)N[C@@H](Cc1c[nH]c2ccccc12)C(=O)N[C@@H](CC(C)C)C(=O)N[C@H](C(=O)N[C@@H](CCCNC(=N)N)C(=O)N[C@@H](CCC(N)=O)C(=O)N[C@@H](CCCNC(=N)N)C(=O)N[C@@H](Cc1ccc(O)cc1)C(N)=O)[C@@H](C)O)C(C)C [Compound 159, N{alpha-4}-(3-methylbutanoyl)-N{epsilon-7}-[2-(2-{2-[2-(2-{2-[(4S)-4-carboxy-4-(17-carboxyheptadecanamido)butanamido]ethoxy}ethoxy)acetamido]ethoxy}ethoxy)acetamido]-[4A,7K,9E,10A,18E,19Q,22V,28Y,30W,31L]hPYY (4-36)] | 53 |
| – | CC(C)CC(=O)N[C@@H](C)C(=O)N1CCC[C@H]1C(=O)N[C@@H](CCC(=O)O)C(=O)N[C@@H](CCCCNC(=O)COCCOCCNC(=O)COCCOCCNC(=O)CC[C@H](NC(=O)CCCCCCCCCCCCCCCCC(=O)O)C(=O)O)C(=O)N1CCC[C@H]1C(=O)N[C@@H](CCC(=O)O)C(=O)N[C@@H](CCC(=O)O)C(=O)N[C@@H](CC(=O)O)C(=O)N[C@@H](C)C(=O)N[C@@H](CO)C(=O)N1CCC[C@H]1C(=O)N[C@@H](CCC(=O)O)C(=O)N[C@@H](CCC(=O)O)C(=O)N[C@@H](CC(C)C)C(=O)N[C@@H](CCC(N)=O)C(=O)N[C@@H](CCC(N)=O)C(=O)N[C@@H](Cc1ccc(O)cc1)C(=O)N[C@@H](CCC(=O)O)C(=O)N[C@H](C(=O)N[C@@H](CO)C(=O)N[C@@H](CC(C)C)C(=O)N[C@@H](CCCNC(=N)N)C(=O)N[C@@H](Cc1c[nH]cn1)C(=O)N[C@@H](Cc1ccc(O)cc1)C(=O)N[C@@H](Cc1ccc(O)cc1)C(=O)N[C@@H](CC(N)=O)C(=O)N[C@@H](Cc1c[nH]c2ccccc12)C(=O)N[C@@H](CC(C)C)C(=O)N[C@H](C(=O)N[C@@H](CCCNC(=N)N)C(=O)N[C@@H](CCC(N)=O)C(=O)N[C@@H](CCCNC(=N)N)C(=O)N[C@@H](Cc1ccc(O)cc1)C(N)=O)[C@@H](C)O)C(C)C [Compound 167, N{alpha-4}-(3-methylbutanoyl)-N{epsilon-7}-[2-(2-{2-[2-(2-{2-[(4S)-4-carboxy-4-(17-carboxyheptadecanamido)butanamido]ethoxy}ethoxy)acetamido]ethoxy}ethoxy)acetamido]-[4A,7K,9E,18Q,19Q,21E,22V,28Y,30W,31L]hPYY (4-36)] (Isovaleryl-APEK([AEEA-AEEA-γGlu-C18 diacid])PEEDASPEELQQYEVSLRHYYNWLTRQRY-NH2) | 73 |
